The values that follow come from patent US10745352B2, “Dual function molecules for histone deacetylase inhibition and ataxia telangiectasia mutated activation and methods of use thereof” (Shuttle Pharmaceuticals, Inc., priority 2015, dated 2020).

This test has as its system breast cancer cells (MCF7 cells). The test is described as follows: Clonogenic cytotoxicity assay, breast cancer cells. It counts as cell-based. The settings on record: Homo sapiens, cell line not named in the sentence (FIG. 9: MCF7 and 184A1). On the procedure: Certain compounds of the invention were tested in both an MTT cytotoxicity assay and clonogenic cytotoxicity assay against breast cancer cells (MCF7 cells) and normal breast tissue cells (184A1 cells) to determine the cytotoxic effect of such cells as a function of concentration.
Specifically, the compounds tested included: N-(6-(hydroxyamino)-6-oxohexyl)-3-methyl-1H-indole-2-carboxamide (SP-1-161); -hydroxy-N^6-(2-(2-methyl-1H-indol-3-yl)ethyl)octanediamide (SP-1-163); (S)—N-(6-(hydroxyamino)-6-oxohexyl)-1-tosylindoline-2-carboxamide (SP-1-169); and (S)-1-((5-(dimethylamino)naphthalene-1-yl)sulfonyl)-N-(6-(hydroxyamino)-6-oxoheyl)indoline-carboxamide (SP-1-171).

Consider `Cc1c(C(=O)NCCCCCC(=O)NO)[nH]c2ccccc12` [SP-1-161, N-(6-(hydroxyamino)-6-oxohexyl)-3-methyl-1H-indole-2-carboxamide], for which the half-maximal inhibitory concentration (IC50) was 276 nM.

What is called IC50 is the concentration at which inhibition is half-maximal.
